Assay results as given in patent publication US5925645A, “2-aryl-substituted pyridines” (Bayer Aktiengesellschaft, priority 1996, dated 1999).

Legend:
[1] = molecular target: T1, cholesterol ester transfer protein (CETP) (Homo sapiens, UniProt P11597); assay: CETP inhibition testing: transfer of 3H-cholesterol ester from human HD lipoproteins to biotinylated LD lipoproteins (SPA); type: biochemical; conditions: 3H-CE transfer HDL to biotin-LDL, 37° C., 18 h
T1 construct: CETP is obtained in partially purified form from human plasma by differential centrifugation and column chromatography; from tissue; host or cells: human plasma
T1 sequence (P11597 18-493): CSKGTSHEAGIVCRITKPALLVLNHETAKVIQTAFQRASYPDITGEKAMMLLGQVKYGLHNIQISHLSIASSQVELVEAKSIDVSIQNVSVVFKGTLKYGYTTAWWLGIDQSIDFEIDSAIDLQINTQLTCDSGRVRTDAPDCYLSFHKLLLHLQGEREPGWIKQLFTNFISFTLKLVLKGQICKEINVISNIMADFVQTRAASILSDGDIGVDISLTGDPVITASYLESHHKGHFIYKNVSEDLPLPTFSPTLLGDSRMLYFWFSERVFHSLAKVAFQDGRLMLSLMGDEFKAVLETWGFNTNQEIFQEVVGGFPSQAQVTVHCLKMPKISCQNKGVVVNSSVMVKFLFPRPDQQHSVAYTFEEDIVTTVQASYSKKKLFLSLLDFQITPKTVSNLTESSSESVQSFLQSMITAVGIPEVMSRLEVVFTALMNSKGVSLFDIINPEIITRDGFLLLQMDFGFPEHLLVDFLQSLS
Method: CETP is obtained in partially purified form from human plasma by differential centrifugation and column chromatography and used for the test. To this end, human plasma is adjusted to a density of 1.21 g per ml using NaBr and centrifuged at 4° C. for 18 h at 50,000 rpm. The bottom fraction (d>1.21 g/ml) is applied to a Sephadex®phenyl-sepharose 4B (Pharmacia) column, washed with 0.15M NaCl/0.001M trisHCl pH 7.4 and then eluted with dist. water. The CETP-active fractions are pooled, dialysed against 50 mM Na acetate pH 4.5 and applied to a CM-Sepharose® (Pharmacia) column. The column is then eluted using a linear gradient (0-1M NaCl). The pooled CETP fractions are dialysed against 10 mM trisHCl pH 7.4 and then further purified by chromatography on a Mono Q® column (Pharmacia).
50 ml of fresh human EDTA plasma is adjusted to a density of 1.12 using NaBr and centrifuged for 18 h at 50,000 rpm at 4° C. in a Ty 65 rotor. The upper phase is used to obtain cold LDL. The lower phase is dialysed against 3×4 l of PDB buffer (10 mM tris/HCl pH 7.4, […], 1 mM EDTA, 0.02% NaN3). 20 μl of ^3 H-cholesterol (Dupont NET-725; 1 μC/μl dissolved in ethanol) are then added per 10 ml of retentate volume and incubation is carried out at 37° C. under N2 for 72 h.
The mixture is then adjusted to the density 1.21 using NaBr and centrifuged at 20° C. at 50,000 rpm in the Ty 65 rotor for 18 h. The upper phase is recovered and the lipoprotein fractions are purified by gradient centrifugation. To this end, the isolated, labelled lipoprotein fraction is adjusted to a density of 1.26 using NaBr. Each 4 ml of this solution are covered with a layer of 4 ml of a solution of density 1.21 and 4.5 ml of a solution of density 1.063 (density solutions of PDB buffer and NaBr) in centrifuge tubes (SW 40 rotor) and then centrifuged in the SW 40 rotor for 24 h at 38,000 rpm and 20° C. The intermediate layer containing the labelled HDL lying between the densities 1.063 and 1.21 is dialyzed against 3×100 volumes of PDB buffer at 4° C.
The retentate contains radiolabelled ^3 H-CE-HDL which, adjusted to about 5×10^6 cpm per ml, is used for the test.
For testing the CETP activity, the transfer of ^3 H-cholesterol ester from human HD lipoproteins to biotinylated LD lipoproteins is measured.
The reaction is ended by addition of streptavidin-SPA® beads (Amersham) and the transferred radioactivity is determined directly in a liquid scintillation counter.
In the test mixture, 10 μl of HDL-^3 H-cholesterol ester (~50,000 cpm) are incubated at 37° C. for 18 h with 10 μl of biotin-LDL (Amersham) in 50 mM Hepes/0.15 m NaCl/0.% bovine serum albumin/0.05% NaN3 pH 7.4 with 10 μl of CETP (1 mg/ml) and 3 μl of solution of the substance to be tested (dissolved in 10% DMSO/1% RSA). 200 μl of the SPA-streptavidin bead solution (Amersham TRKQ 7005) are then added, the mixture is incubated further for 1 h with shaking and then measured in the scintillation counter. As controls, corresponding incubations with 10 μl of buffer, 10 μl of CETP at 4° C. and 10 μl of CETP at 37° C. are used. The activity transferred into the control mixtures with CETP at 37° C. is rated as 100% transfer. The substance concentration at which this transfer is reduced by half is indicated as the IC50 value.
In the following table, the IC50 values (mol/l) are indicated for CETP inhibitors: […]

CETP = assay: Determination of the CETP activity ex vivo after intravenous administration; type: in vivo, Syrian golden hamsters; conditions: 20 mg/kg intravenous
Method: (§1) Syrian golden hamsters from in-house breeding are anaesthetized after fasting for 24 hours (0.80 mg/kg of atropine, 0.80 mg/kg of Ketavet® s.c. 30' later 50 mg/kg of Nembutal i.p.). The jugular vein is then exposed and cannulated. The test substance is dissolved in a suitable solvent (as a rule Adalat placebo solution: 60 g of glycerol, 100 ml of H2 O, PEG-400 to 1000 ml) and administered to the animals via a PE catheter inserted into the jugular vein. The control animals receive the same volume of solvent without test substance. The vein is then tied off and the wound is closed. After various times--up to 24 hours after administration of the test substance--blood (about 250 μl) is removed from the animals by puncture of the retro-orbital venous plexus. Clotting is concluded by incubation at 4° C. overnight, then centrifugation is carried out at 6000 g for 10 minutes. In the serum thus obtained, the content of cholesterol and triglycerides is determined with the aid of modified commercially available enzyme tests (cholesterol enzymatic 14366 Merck, triglycerides 14364 Merck). Serum is suitably diluted using physiological saline solution.
Determination of the CETP activity
After intravenous administration of 20 mg/kg of the compound from Example 42, an about 50% reduction of the CETP activity measured ex vivo is found over a period of at least 2 hours. […]

[2] = HDL cholesterol after intravenous administration to hamsters; type: in vivo, Syrian golden hamsters; conditions: 20 mg/kg intravenous; 24 hours after substance administration
Method: as §1, with “Clotting is concluded by incubation at 4° C. overnight, then centrifugation is carried out at 6000 g for 10 minutes.” left out, “Serum is suitably diluted using physiological saline solution.” left out
100 μl of serum dilution are mixed with 100 μl of […] in 96-well plates and incubated at room temperature for 10 minutes. The optical density is then determined at a wavelength of 492 nm using an automatic plate-reading apparatus (SLT Spectra). The triglyceride/cholesterol concentration contained in the samples is determined with the aid of a standard curve measured in parallel. […]

[3] = Oral activity in hamsters: HDL cholesterol and triglycerides; type: in vivo, Syrian golden hamsters
Method: as §1
100 μl of serum dilution are mixed with 100 μl of […] in 96-well plates and incubated at room temperature for 10 minutes. The optical density is then determined at a wavelength of 492 nm using an automatic plate-reading apparatus (SLT Spectra). The triglyceride/cholesterol concentration contained in the samples is determined with the aid of a standard curve measured in parallel.
The determination of the content of HDL cholesterol is carried out after precipitation of the ApoB-containing lipoproteins by means of a reagent mixture (Sigma 352-4 HDL cholesterol reagent) according to the manufacturer's instructions.
In experiments to determine the oral activity, test substance dissolved in DMSO and suspended in 0.5% Tylose is administered orally by means of stomach tube to Syrian golden hamsters from in-house breeding. The control animals receive identical volumes of solvent without test substance. […]

[4] = 2×45 mg/kg per os, 24 hours after the first administration

Row | Structure (SMILES) | IC50 [1] [nM] | other results
1 | OCc1c(-c2ccc(F)cc2)nc(C2CCCC2)c(C(F)c2ccc(C(F)(F)F)cc2)c1-c1ccc(F)cc1 (stereo not drawn) [Example 42] | 90 to 170 | period over which the about 50% reduction of CETP activity is found (CETP; ex vivo): at least 2 hours; reduction of the CETP activity measured ex vivo (CETP; over a period of at least 2 hours): about 50%; increase of HDL cholesterol values versus control group [2]: about 30%; increase of HDL cholesterol levels ([3]; 100 mg/kg per os, 24 hours after administration): 30%
2 | OCc1c(-c2ccc(Cl)cc2)nc(C2CCCC2)c(C(F)c2ccc(C(F)(F)F)cc2)c1-c1ccc(F)cc1 (stereo not drawn) [Example 37] | 300 | –
3 | OCc1c(-c2ccc(F)cc2)nc(C2CCCC2)c(C(F)c2ccc(C(F)(F)F)cc2)c1-c1ccc(F)cc1 (single isomer, unassigned) [Example 44] | – | increase of the level of HDL cholesterol versus control group [3, 4]: 20%; lowering of the level of the triglycerides versus control group [3, 4]: 70%
4 | OCc1c(-c2ccc(F)cc2)nc(C2CCCC2)c(C(F)c2ccc3ccccc3c2)c1-c1ccc(F)cc1 (stereo not drawn) [Example 68] | 80 | –
5 | OCc1c(-c2ccc(F)cc2)nc(C2CCCCC2)c(C(F)c2ccc(C(F)(F)F)cc2)c1-c1ccc(F)cc1 (stereo not drawn) [Example 51] | 400 | –
6 | OCc1c(-c2ccc(F)cc2)nc(C2CCCC2)c(C(F)c2ccc(OC(F)(F)F)cc2)c1-c1ccc(F)cc1 (stereo not drawn) [Example 45] | 300 | –

Now from value to compound, other results behind:

Row | IC50 [1] [nM] | Structure (SMILES) | other results
7 | 70 | O=C(c1ccc(C(F)(F)F)cc1)c1c(C2CCCC2)nc(-c2cccc(C(F)(F)F)c2)c(CO)c1-c1ccc(F)cc1 [Example 14] | –
8 | 170 | OCc1c(-c2ccc(F)cc2)nc(C2CCCCCC2)c(C(F)c2ccc(C(F)(F)F)cc2)c1-c1ccc(F)cc1 (stereo not drawn) [Example 53] | –
9 | 500 | CC(C)c1nc(-c2ccc(F)cc2)c(CO)c(-c2ccc(F)cc2)c1C(F)c1ccc(C(F)(F)F)cc1 (stereo not drawn) [Example 31, 2-,4-di-(4-Fluorophenyl)-6-isopropyl-5-[4-(trifluoromethylphenyl)-fluoromethyl]-3-hydroxymethyl-pyridine] | –
10 | 900 | CC(O)c1c(-c2ccc(F)cc2)nc(C2CCCC2)c(C(=O)c2ccc(C(F)(F)F)cc2)c1-c1ccc(F)cc1 (stereo not drawn) [Example 26] | –
11 | 1000 | CC(C)c1nc(-c2ccc(F)cc2)c(CO)c(-c2cccc(Cl)c2)c1Cc1ccc(C(F)(F)F)cc1 [Example 63] | –
12 | 5000 | CC(C)c1nc(-c2ccc(F)cc2)c(CO)c(-c2ccc(F)cc2)c1C=Cc1cccc(C(F)(F)F)c1 [Example 83, 2,4-di-(4-Fluorophenyl)-6-isopropyl-5-[2-(3-trifluoromethylphenyl)vinyl]-3-hydroxymethyl-pyridine] | –
13 | 800 | CC(C)c1nc(-c2ccc(F)cc2)c(C(C)O)c(-c2ccc(F)cc2)c1C(F)c1ccc(C(F)(F)F)cc1 (stereo not drawn) [Example 3, 4,6-Bis-(p-fluorophenyl)-2-isopropyl-3-[(p-trifluoromethylphenyl)-(fluoro)methyl]5-(1-hydroxyethyl)pyridine] | –
